Measurements reported in ChEMBL document CHEMBL1201862, “PubChem BioAssay data set” (2004).
The source made the active and inactive calls.

Assays:
[1] = ADAM10 protease inhibitors, dose response, selectivity assay for ADAM17 exosite inhibitor project, biochemical, FRET peptide substrate, recombinant human ADAM10 (AID 743259);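 further: ADAM10 enzyme cleaving a FRET peptide substrate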
[2] = reduction of Shn3 3'UTR firefly luciferase signal, dose response, Schnurri-3 inhibitor project, cell-based, Clone20 osteoblasts, cherry-pick, set 2 (AID 720490); assay type: functional;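 further: actives lower the luminescence signal as inhibitors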
Ion channel NompC = Ion channel NompC (Danio rerio, UniProt Q7T1G6); experiment: Fluorescence counterscreen assay for TRPML3 agonists: dose response cell-based high-throughput screening assay to identify agonists of the transient receptor potential channel N1 (TRPN1). [Related pubchem assays: 1526, 1424, 1448 ]; assay type: functional
Sequence of Ion channel NompC (Q7T1G6 whole entry): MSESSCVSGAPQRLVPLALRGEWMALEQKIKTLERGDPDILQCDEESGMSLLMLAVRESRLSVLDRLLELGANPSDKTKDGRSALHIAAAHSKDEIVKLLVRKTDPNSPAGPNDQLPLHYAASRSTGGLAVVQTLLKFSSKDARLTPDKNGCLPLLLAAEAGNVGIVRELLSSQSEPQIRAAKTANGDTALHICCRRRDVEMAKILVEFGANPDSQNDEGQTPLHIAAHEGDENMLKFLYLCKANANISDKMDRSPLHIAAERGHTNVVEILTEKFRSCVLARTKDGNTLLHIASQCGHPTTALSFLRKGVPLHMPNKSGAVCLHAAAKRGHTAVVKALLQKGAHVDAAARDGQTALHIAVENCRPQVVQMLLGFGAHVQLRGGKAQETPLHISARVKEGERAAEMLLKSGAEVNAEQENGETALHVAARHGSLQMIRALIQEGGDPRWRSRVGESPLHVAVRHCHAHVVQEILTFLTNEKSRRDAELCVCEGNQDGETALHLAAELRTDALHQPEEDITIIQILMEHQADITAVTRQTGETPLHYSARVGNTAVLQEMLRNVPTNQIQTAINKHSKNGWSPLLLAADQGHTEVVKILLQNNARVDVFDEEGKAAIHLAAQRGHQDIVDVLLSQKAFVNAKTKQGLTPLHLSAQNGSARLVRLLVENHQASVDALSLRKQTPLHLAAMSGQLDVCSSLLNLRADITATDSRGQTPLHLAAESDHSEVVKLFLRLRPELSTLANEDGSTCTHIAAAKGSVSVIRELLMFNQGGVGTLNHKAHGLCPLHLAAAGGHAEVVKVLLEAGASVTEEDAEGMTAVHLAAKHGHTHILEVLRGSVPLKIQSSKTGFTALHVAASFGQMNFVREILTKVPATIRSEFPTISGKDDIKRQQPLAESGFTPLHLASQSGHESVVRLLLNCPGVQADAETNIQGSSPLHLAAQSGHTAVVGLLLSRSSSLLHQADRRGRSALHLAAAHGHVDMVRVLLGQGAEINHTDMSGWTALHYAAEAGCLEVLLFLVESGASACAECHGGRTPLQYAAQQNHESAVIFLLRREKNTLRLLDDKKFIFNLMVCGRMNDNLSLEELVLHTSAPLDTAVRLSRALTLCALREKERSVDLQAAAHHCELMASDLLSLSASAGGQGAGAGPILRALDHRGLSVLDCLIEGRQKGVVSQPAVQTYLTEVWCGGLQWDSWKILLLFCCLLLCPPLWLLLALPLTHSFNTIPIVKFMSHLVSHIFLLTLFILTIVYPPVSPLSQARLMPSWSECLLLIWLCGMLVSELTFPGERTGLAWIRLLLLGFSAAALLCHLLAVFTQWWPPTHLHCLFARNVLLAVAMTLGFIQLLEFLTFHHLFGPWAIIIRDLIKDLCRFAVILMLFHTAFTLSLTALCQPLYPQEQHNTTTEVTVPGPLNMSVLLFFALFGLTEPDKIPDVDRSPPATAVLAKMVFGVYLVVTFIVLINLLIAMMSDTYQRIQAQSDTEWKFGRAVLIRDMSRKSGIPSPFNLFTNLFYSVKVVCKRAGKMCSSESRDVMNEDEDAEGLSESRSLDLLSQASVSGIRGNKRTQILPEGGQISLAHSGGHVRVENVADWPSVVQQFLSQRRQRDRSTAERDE

[3] = Shn3 3'UTR reporter inhibitors, dose response, cell-based, Clone20 osteoblasts, firefly luciferase, cherry-picked (AID 624132); assay type: functional;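 further: firefly luciferase luminescence from reporter carrying the Shn3 3'UTR in osteoblasts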
[4] = HepG2 cell cytotoxicity, dose response, cytotoxicity control for Shn3 inhibitor project, CellTiter-Glo, cherry-picked (AID 624134); assay type: functional, cell-based
Mucolipin-3 = biological target: T1, Mucolipin-3 (Homo sapiens, UniProt Q8TDD5); experiment: Dose response cell-based high-throughput screening assay for agonists of the transient receptor potential channel ML3 (TRPML3). [Related pubchem assays: 1526, 1424, 1448 ]; assay type: functional
T1 sequence (Q8TDD5 whole entry): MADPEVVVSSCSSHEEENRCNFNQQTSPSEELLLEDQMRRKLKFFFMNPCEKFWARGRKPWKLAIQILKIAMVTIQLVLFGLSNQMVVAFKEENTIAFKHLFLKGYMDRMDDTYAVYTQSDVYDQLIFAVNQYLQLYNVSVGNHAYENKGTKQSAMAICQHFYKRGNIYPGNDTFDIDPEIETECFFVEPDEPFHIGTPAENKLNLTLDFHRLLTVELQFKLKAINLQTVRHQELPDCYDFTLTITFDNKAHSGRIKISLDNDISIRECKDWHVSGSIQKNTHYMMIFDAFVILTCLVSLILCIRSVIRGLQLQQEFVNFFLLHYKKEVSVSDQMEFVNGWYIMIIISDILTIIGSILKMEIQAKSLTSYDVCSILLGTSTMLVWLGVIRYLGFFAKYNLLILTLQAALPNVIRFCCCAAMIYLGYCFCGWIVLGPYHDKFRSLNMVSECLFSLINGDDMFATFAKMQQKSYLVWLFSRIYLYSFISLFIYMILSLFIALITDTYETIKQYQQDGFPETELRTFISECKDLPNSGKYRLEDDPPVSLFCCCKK

[5] = biological target: Endoplasmic reticulum aminopeptidase 1 (Homo sapiens, UniProt Q9NZ08); experiment: ERAP1 aminopeptidase inhibitors, dose response, biochemical, cherry-pick, set 2, plate reader (AID 743314)
Sequence of Endoplasmic reticulum aminopeptidase 1 (Q9NZ08 whole entry, the tested form may be a part): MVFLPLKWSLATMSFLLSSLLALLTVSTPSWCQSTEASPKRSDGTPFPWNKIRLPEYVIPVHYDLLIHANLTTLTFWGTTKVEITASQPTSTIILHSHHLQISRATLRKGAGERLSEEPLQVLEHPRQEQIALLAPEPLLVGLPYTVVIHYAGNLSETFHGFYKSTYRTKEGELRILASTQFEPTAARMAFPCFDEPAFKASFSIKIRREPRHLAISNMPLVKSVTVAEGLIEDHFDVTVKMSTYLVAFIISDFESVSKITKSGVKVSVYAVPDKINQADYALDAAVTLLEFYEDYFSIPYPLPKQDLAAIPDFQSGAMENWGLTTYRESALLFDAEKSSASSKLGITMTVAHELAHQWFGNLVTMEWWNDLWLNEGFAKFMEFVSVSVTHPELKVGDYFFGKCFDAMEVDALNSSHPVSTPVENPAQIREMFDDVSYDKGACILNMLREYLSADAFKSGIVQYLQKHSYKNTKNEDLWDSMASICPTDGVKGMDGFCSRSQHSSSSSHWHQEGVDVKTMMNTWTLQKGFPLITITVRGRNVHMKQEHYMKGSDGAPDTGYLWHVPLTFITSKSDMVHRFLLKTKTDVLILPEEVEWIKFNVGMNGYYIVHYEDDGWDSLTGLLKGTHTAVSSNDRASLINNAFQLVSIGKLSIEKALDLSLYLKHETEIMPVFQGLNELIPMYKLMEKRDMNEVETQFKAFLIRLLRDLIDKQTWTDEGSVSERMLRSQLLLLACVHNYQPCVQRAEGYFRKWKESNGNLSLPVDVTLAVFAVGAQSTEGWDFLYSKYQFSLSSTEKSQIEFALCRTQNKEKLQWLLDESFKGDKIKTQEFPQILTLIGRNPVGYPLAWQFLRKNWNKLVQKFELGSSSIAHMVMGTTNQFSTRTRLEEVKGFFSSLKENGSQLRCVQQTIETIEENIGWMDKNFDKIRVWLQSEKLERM

[6] = biological target: T2, Oxysterols receptor LXR-beta (Homo sapiens, UniProt P55055); experiment: LXR agonists, Gal4 luciferase reporter, dose response, counter-screen for ssDAF-12 agonist project, cell-based, luminescence, HEK293, S. stercoralis campaign (AID 720737); assay type: functional; conditions: read-out: IC50 (the source's name)
T2 sequence (P55055 whole entry): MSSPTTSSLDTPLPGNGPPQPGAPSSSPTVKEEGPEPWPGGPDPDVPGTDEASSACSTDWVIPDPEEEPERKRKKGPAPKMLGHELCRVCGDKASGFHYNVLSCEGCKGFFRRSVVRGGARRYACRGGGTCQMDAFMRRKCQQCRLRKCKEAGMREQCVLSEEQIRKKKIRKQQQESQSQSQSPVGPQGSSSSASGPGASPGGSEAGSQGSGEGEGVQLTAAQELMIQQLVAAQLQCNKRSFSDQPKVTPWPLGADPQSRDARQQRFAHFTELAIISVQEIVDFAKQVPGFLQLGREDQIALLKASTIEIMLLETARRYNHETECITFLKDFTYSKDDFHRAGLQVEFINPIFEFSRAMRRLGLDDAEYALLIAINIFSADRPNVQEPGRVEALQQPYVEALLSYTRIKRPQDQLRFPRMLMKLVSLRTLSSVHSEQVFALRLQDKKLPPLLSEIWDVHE

[7] = Luminescence-based cell-based high throughput dose response assay to identify activators of the DAF-12 from the parasite S. stercoralis (ssDAF-12).; assay type: functional
[8] = biological target: T2, Oxysterols receptor LXR-beta; assay type: functional, cell-based
[9] = non-specific cell cytotoxicity, dose response, cytotoxicity control for PAX8 inhibitor project, plate reader, dry powder samples (AID 743021); assay type: functional, cell-based
[10] = cytotoxicity in OVCAR8 ovarian cancer cells, dose response, PAX8 project, cell-based, plate reader, dry powder samples (AID 743197); assay type: functional; conditions: OVCAR-8
Paired box protein Pax-8 = Paired box protein Pax-8 (Homo sapiens, UniProt Q06710); experiment: inhibitors of PAX8-driven TPO luciferase reporter, dose response, RMG-I cells, cherry-pick (AID 687027); assay type: functional, cell-based;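 further: luciferase reporter driven by Pax8 target thyroperoxidase promoter measured by SteadyGlo luminescence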
Sequence of Paired box protein Pax-8 (Q06710 whole entry): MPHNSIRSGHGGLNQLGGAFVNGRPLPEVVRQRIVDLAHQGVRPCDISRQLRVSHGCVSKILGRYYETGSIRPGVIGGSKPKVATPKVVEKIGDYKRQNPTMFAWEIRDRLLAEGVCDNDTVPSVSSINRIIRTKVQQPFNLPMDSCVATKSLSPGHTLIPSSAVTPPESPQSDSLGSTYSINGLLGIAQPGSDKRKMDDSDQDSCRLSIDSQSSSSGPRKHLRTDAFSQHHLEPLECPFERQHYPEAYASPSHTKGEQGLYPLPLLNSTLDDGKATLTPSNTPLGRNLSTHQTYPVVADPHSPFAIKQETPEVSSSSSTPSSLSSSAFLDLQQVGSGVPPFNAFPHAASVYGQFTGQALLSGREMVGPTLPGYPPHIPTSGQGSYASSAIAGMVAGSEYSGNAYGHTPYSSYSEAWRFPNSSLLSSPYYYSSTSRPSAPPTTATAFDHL

[11] = NIH:OVCAR-3 ovarian cancer cell cytotoxicity, dose response, PAX8 inhibitor project, plate reader, dry powder samples (AID 743044); assay type: functional, cell-based
[12] = A2780 ovarian cancer cell cytotoxicity, dose response, cytotoxicity control, plate reader, dry powder samples (AID 743046); assay type: functional, cell-based
[13] = IGROV1 ovarian cancer cell cytotoxicity, dose response, PAX8 inhibitor project, plate reader, dry powder samples (AID 743043); assay type: functional, cell-based; conditions: IGROV-1

COc1ccc(-c2nnc(S)n2-c2ccc(Br)cc2)cc1OC
IC50 [1]: > 69.5 µM (inactive)

COc1ccc(NS(=O)(=O)c2ccc(OC)c(N(C)S(=O)(=O)c3ccc(Cl)cc3)c2)cc1
AC50 [2]: 3.54 µM (active)
EC50 (Ion channel NompC): > 29.9 µM (not active)
AC50 [3]: 2.92 µM (active)
AC50 [4]: 38.7 µM (active)
EC50 (Mucolipin-3): > 9.99 µM (not active)

O=c1ccc2cc(OC3O[C@H](CO)[C@@H](O)[C@H](O)[C@H]3O)c(O)cc2o1 (stereo partly specified)
AC50 [5]: 2.24 µM (active)

Oc1ccccc1-c1cc(-c2ccc(Cl)cc2)[nH]n1
EC50 [6]: > 67.5 µM (inactive)
IC50 [7]: > 67.5 µM (inactive)
EC50 [8]: > 67.5 µM (inactive)

COc1ccc(CN(C)C[C@@H]2OCCCC[C@H](C)Oc3ccc(NC(=O)Nc4ccc(C(F)(F)F)cc4)cc3C(=O)N([C@@H](C)CO)C[C@H]2C)cc1
AC50 [9]: 63.1 µM (active)
AC50 [10]: 25.2 µM (active)
AC50 (Paired box protein Pax-8): 14.6 µM (active)
AC50 [11]: 2.91 µM (active)
AC50 [12]: 21.9 µM (active)

O=C(C1CCC1)N1CC(=O)N2[C@H](CO)[C@H](c3ccc(C#CCc4ccccc4)cc3)[C@H]2C1
AC50 [9]: 48 µM (active)
AC50 [10]: 20.4 µM (active)
AC50 (Paired box protein Pax-8): 24.3 µM (active)
AC50 [11]: 11.4 µM (active)
AC50 [13]: 42.6 µM (active)
AC50 [12]: 0.324 µM (active)
